Results published in the kinase profiling compilation of Christmann-Franck et al. (2016).

Tests used:
Test in all cases: KINOMEscan competition binding
Settings in all cases: compound 10.0 µM
SBK1 (human) = SBK1 (human) (UniProt Q52WX2)
SIK3 (human) = SIK3 (human) (UniProt Q9Y2K2)
MAP2K3 (human) = MAP2K3 (human) (UniProt P46734)
LYN (human) = LYN (human) (UniProt P07948)
PAK3 (human) = PAK3 (human) (UniProt O75914)
SIK1 (human) = SIK1 (human) (UniProt P57059)
CDK14 (human) = CDK14 (human) (UniProt O94921)
MKNK2 (human) = MKNK2 (human) (UniProt Q9HBH9)
RPS6KA2 KD2 (human) = RPS6KA2 KD2 (human) (UniProt Q15349)
CDC42BPA (human) = CDC42BPA (human) (UniProt Q5VT25)
CDC42BPG (human) = CDC42BPG (human) (UniProt Q6DT37)
MAPK10 (human) = MAPK10 (human) (UniProt P53779)
DYRK1B (human) = DYRK1B (human) (UniProt Q9Y463)
AKT3 (human) = AKT3 (human) (UniProt Q9Y243)
PRKD3 (human) = PRKD3 (human) (UniProt O94806)
PIP5K1A (human) = PIP5K1A (human) (UniProt Q99755)
[1] = target: TYK2 JH2 pseudokinase (human) (UniProt P29597)
AKT1 (human) = AKT1 (human) (UniProt P31749)
VRK2 (human) = VRK2 (human) (UniProt Q86Y07)
[2] = system: EGFR (human), P00533 [752-759 del]
PDGFRB (human) = PDGFRB (human) (UniProt P09619)
[3] = system: FLT3 (human), P36888 [R834Q]
[4] = system: MET (human), P08581 [Y1235D]
SRPK3 (human) = SRPK3 (human) (UniProt Q9UPE1)
TTK (human) = TTK (human) (UniProt P33981)
PHKG1 (human) = PHKG1 (human) (UniProt Q16816)
PRKCE (human) = PRKCE (human) (UniProt Q02156)
MAP2K2 (human) = MAP2K2 (human) (UniProt P36507)
YSK4 (human) = YSK4 (human) (UniProt Q56UN5)
MAP2K4 (human) = MAP2K4 (human) (UniProt P45985)
MAPK15 (human) = MAPK15 (human) (UniProt Q8TD08)
CDK11B (human) = CDK11B (human) (UniProt P21127)
RIOK1 (human) = RIOK1 (human) (UniProt Q9BRS2)
MAP4K3 (human) = MAP4K3 (human) (UniProt Q8IVH8)
NLK (human) = NLK (human) (UniProt Q9UBE8)
PTK2 (human) = PTK2 (human) (UniProt Q05397)
PAK6 (human) = PAK6 (human) (UniProt Q9NQU5)
EPHA8 (human) = EPHA8 (human) (UniProt P29322)
MAPK1 (human) = MAPK1 (human) (UniProt P28482)

Sequence of CDK11B (human) (P21127 whole entry, looked up): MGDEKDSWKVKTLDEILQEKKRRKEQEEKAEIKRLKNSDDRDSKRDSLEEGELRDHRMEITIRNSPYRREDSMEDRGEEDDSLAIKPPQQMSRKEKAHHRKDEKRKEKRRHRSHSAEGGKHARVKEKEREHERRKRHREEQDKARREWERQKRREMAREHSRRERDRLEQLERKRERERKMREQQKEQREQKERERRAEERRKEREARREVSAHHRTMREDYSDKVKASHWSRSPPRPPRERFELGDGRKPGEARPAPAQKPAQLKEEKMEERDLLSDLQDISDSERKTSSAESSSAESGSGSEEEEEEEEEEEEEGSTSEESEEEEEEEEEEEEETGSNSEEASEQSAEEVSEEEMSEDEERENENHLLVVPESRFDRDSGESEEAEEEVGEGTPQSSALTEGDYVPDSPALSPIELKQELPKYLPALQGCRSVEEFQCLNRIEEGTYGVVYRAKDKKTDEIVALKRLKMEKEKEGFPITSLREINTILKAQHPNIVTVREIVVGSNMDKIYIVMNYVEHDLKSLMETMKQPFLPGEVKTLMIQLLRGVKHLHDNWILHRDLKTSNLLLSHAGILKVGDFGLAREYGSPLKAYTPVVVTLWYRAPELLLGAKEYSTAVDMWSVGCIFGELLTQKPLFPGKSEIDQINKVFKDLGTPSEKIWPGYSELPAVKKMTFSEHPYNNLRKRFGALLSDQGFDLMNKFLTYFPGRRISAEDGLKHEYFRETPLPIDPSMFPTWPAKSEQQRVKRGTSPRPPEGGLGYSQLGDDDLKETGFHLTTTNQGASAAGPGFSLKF
Sequence of AKT3 (human) (Q9Y243 whole entry, looked up): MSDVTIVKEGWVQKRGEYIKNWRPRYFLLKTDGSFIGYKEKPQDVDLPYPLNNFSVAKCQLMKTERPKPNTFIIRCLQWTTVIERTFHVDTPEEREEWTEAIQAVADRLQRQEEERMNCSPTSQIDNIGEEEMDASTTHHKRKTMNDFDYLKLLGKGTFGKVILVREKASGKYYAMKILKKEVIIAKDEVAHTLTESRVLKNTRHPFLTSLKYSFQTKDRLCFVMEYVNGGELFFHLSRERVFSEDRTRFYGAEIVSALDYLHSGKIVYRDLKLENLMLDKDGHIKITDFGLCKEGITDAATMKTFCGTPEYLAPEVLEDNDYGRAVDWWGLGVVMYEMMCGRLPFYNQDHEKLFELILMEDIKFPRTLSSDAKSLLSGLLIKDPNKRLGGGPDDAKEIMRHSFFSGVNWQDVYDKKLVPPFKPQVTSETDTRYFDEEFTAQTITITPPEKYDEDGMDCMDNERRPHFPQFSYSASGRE
Sequence of PRKD3 (human) (O94806 whole entry, looked up): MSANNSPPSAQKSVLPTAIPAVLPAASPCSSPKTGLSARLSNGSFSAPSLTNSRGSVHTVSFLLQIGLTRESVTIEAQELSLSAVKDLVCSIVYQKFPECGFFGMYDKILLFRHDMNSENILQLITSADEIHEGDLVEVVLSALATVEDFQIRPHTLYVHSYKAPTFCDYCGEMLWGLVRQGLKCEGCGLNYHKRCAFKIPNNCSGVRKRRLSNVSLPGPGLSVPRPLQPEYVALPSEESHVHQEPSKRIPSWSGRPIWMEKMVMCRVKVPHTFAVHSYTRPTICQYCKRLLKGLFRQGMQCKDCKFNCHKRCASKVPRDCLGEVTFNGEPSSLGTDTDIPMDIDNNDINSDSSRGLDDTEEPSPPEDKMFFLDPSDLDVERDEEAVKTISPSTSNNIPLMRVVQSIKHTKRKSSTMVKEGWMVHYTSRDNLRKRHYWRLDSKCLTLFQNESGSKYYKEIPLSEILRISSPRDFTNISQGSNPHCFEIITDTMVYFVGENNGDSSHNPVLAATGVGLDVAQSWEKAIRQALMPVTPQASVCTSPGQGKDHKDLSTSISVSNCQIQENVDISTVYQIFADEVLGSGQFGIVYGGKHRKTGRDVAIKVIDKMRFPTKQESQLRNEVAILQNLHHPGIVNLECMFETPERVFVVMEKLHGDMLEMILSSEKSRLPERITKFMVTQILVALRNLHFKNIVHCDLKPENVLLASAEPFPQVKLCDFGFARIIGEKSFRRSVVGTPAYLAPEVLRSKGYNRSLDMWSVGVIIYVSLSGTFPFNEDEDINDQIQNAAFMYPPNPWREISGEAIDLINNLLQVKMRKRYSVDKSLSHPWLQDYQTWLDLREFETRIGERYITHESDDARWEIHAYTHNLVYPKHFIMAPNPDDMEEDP
Sequence of PTK2 (human) (Q05397 whole entry, looked up): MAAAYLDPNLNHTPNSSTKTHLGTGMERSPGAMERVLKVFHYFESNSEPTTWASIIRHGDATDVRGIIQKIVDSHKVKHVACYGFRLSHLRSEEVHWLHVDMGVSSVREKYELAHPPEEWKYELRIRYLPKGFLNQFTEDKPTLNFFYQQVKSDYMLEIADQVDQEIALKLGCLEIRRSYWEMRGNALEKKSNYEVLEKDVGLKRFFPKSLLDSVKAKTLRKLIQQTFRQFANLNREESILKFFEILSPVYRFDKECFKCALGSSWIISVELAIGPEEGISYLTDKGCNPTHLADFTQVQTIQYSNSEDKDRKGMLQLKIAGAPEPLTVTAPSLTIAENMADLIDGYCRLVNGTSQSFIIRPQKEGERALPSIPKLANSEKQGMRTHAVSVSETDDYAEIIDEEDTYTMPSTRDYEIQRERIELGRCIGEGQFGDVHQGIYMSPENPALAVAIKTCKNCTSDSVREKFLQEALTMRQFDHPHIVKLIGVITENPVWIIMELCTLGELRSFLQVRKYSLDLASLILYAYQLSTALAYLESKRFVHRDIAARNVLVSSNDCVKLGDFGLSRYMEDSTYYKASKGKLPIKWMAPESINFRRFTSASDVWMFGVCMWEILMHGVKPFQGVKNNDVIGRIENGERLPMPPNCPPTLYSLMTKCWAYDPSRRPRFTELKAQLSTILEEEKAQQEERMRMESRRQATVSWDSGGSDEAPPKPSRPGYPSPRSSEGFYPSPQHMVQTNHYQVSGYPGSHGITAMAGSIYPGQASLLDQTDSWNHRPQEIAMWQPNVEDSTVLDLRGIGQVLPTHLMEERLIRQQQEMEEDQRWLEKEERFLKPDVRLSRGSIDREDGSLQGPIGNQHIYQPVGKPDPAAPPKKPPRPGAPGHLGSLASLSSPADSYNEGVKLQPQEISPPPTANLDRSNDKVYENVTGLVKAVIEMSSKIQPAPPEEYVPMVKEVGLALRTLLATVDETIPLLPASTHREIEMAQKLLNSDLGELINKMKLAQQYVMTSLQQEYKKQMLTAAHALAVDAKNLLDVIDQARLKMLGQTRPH
Sequence of MAP2K4 (human) (P45985 whole entry, looked up): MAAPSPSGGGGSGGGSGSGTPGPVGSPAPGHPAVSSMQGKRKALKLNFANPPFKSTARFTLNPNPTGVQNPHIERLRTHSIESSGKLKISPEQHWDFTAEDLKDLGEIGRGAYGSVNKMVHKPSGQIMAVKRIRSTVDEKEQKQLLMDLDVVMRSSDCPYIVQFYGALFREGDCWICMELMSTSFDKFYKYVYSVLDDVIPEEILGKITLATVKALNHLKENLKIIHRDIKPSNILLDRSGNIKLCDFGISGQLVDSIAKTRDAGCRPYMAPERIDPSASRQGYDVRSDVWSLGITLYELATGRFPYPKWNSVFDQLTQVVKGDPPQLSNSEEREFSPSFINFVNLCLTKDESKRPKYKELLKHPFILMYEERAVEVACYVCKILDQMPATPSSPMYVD
Sequence of PHKG1 (human) (Q16816 whole entry, looked up): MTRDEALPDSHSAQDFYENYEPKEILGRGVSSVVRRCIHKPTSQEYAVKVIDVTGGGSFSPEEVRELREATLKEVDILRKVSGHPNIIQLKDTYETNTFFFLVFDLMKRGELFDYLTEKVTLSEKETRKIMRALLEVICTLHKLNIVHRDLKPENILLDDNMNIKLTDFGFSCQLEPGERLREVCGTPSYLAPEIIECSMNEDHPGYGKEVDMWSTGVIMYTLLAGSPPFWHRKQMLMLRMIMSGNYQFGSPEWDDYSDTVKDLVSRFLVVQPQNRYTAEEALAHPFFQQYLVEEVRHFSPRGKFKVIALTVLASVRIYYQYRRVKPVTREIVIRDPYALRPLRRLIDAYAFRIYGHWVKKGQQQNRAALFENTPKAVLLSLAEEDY
Sequence of PAK3 (human) (O75914 whole entry, looked up): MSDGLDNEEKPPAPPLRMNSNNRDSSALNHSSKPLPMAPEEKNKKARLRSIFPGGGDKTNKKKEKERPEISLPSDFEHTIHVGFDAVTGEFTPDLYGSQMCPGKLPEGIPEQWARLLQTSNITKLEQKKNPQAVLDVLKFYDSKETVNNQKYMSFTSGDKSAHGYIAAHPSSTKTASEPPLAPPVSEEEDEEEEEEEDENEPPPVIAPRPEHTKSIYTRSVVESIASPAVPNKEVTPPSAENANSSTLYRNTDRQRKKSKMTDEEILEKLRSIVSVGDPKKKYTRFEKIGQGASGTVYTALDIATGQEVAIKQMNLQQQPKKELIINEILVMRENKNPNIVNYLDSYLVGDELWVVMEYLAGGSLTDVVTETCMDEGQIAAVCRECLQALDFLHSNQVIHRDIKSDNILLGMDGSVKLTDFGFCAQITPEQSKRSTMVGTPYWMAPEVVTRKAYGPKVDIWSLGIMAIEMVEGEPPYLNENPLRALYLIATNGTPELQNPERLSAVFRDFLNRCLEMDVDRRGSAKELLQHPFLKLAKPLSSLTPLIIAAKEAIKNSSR
Sequence of SBK1 (human) (Q52WX2 whole entry, looked up): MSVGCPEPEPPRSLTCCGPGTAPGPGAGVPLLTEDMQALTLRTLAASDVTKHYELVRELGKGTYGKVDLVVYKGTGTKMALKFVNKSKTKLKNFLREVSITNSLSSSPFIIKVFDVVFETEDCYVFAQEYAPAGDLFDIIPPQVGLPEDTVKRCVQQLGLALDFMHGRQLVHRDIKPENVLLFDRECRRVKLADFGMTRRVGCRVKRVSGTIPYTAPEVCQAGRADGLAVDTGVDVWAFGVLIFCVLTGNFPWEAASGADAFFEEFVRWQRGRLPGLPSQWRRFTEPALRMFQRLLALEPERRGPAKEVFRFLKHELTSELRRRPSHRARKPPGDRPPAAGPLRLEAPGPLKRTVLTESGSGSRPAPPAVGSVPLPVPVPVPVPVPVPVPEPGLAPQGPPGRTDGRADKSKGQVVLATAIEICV

| Compound | kinase still bound, per cent of control (SBK1 (human)) [%] | kinase still bound, per cent of control (SIK3 (human)) [%] | kinase still bound, per cent of control (MAP2K3 (human)) [%] | kinase still bound, per cent of control (LYN (human)) [%] | kinase still bound, per cent of control (PAK3 (human)) [%] | kinase still bound, per cent of control (SIK1 (human)) [%] | kinase still bound, per cent of control (CDK14 (human)) [%] | kinase still bound, per cent of control (MKNK2 (human)) [%] | kinase still bound, per cent of control (RPS6KA2 KD2 (human)) [%] | kinase still bound, per cent of control (CDC42BPA (human)) [%] | kinase still bound, per cent of control (MAPK10 (human)) [%] | kinase still bound, per cent of control (DYRK1B (human)) [%] | kinase still bound, per cent of control (AKT3 (human)) [%] | kinase still bound, per cent of control (PRKD3 (human)) [%] | kinase still bound, per cent of control (PIP5K1A (human)) [%] | kinase still bound, per cent of control [1] [%] | kinase still bound, per cent of control (AKT1 (human)) [%] | kinase still bound, per cent of control (VRK2 (human)) [%] | kinase still bound, per cent of control (PDGFRB (human)) [%] | kinase still bound, per cent of control [4] [%] | further results |
| --- | --- | --- | --- | --- | --- | --- | --- | --- | --- | --- | --- | --- | --- | --- | --- | --- | --- | --- | --- | --- | --- |
| N#CCNC(=O)c1ccc(-c2ccnc(Nc3ccc(N4CCOCC4)cc3)n2)cc1 | 46 | 100 | 53 | 94 | 73 | 62 | 76 | 1.2 | 71 | 67 | 2.4 | 90 | 100 | 65 | 39 | 100 | 100 | 94 | 2.2 | 100 | kinase still bound, per cent of control (CDC42BPG (human)): 96%; kinase still bound, per cent of control [2]: 72%; kinase still bound, per cent of control [3]: 100%; kinase still bound, per cent of control (SRPK3 (human)): 18%; kinase still bound, per cent of control (TTK (human)): 22%; kinase still bound, per cent of control (PHKG1 (human)): 78%; kinase still bound, per cent of control (PRKCE (human)): 59%; kinase still bound, per cent of control (MAP2K2 (human)): 100%; kinase still bound, per cent of control (YSK4 (human)): 1.7%; kinase still bound, per cent of control (MAP2K4 (human)): 32%; kinase still bound, per cent of control (MAPK15 (human)): 0.25%; kinase still bound, per cent of control (CDK11B (human)): 66%; kinase still bound, per cent of control (RIOK1 (human)): 1%; kinase still bound, per cent of control (MAP4K3 (human)): 57%; kinase still bound, per cent of control (NLK (human)): 86%; kinase still bound, per cent of control (PTK2 (human)): 85%; kinase still bound, per cent of control (PAK6 (human)): 100%; kinase still bound, per cent of control (EPHA8 (human)): 83%; kinase still bound, per cent of control (MAPK1 (human)): 93% |
| COc1cc2ncn(-c3cc(OCc4ccccc4C(F)(F)F)c(C(N)=O)s3)c2cc1OC | 96 | 76 | 78 | 60 | 77 | 40 | 90 | 76 | 74 | 68 | 89 | 87 | 100 | 100 | 3.4 | 97 | 100 | 87 | 5.3 | 40 | kinase still bound, per cent of control (CDC42BPG (human)): 64%; kinase still bound, per cent of control [2]: 100%; kinase still bound, per cent of control (SRPK3 (human)): 16%; kinase still bound, per cent of control (TTK (human)): 87%; kinase still bound, per cent of control (PHKG1 (human)): 88%; kinase still bound, per cent of control (PRKCE (human)): 100%; kinase still bound, per cent of control (MAP2K2 (human)): 85%; kinase still bound, per cent of control (YSK4 (human)): 34%; kinase still bound, per cent of control (MAP2K4 (human)): 100%; kinase still bound, per cent of control (MAPK15 (human)): 46%; kinase still bound, per cent of control (CDK11B (human)): 100%; kinase still bound, per cent of control (RIOK1 (human)): 4.1%; kinase still bound, per cent of control (MAP4K3 (human)): 32%; kinase still bound, per cent of control (NLK (human)): 68%; kinase still bound, per cent of control (PTK2 (human)): 83%; kinase still bound, per cent of control (PAK6 (human)): 94%; kinase still bound, per cent of control (EPHA8 (human)): 74%; kinase still bound, per cent of control (MAPK1 (human)): 86% |
| O=C1NC(=O)/C(=C/c2ccc3nccc(-c4ccncc4)c3c2)S1 | 73 | 93 | 35 | 92 | 20 | 96 | 37 | 49 | 12 | 90 | 26 | 1.2 | 100 | 74 | 48 | 51 | 90 | 81 | 55 | 94 | kinase still bound, per cent of control (CDC42BPG (human)): 90%; kinase still bound, per cent of control [2]: 95%; kinase still bound, per cent of control [3]: 90%; kinase still bound, per cent of control (SRPK3 (human)): 31%; kinase still bound, per cent of control (TTK (human)): 19%; kinase still bound, per cent of control (PHKG1 (human)): 31%; kinase still bound, per cent of control (PRKCE (human)): 38%; kinase still bound, per cent of control (MAP2K2 (human)): 4.4%; kinase still bound, per cent of control (YSK4 (human)): 0.05%; kinase still bound, per cent of control (MAP2K4 (human)): 9.6%; kinase still bound, per cent of control (MAPK15 (human)): 0.05%; kinase still bound, per cent of control (CDK11B (human)): 95%; kinase still bound, per cent of control (RIOK1 (human)): 1%; kinase still bound, per cent of control (MAP4K3 (human)): 67%; kinase still bound, per cent of control (NLK (human)): 84%; kinase still bound, per cent of control (PTK2 (human)): 100%; kinase still bound, per cent of control (PAK6 (human)): 83%; kinase still bound, per cent of control (EPHA8 (human)): 90%; kinase still bound, per cent of control (MAPK1 (human)): 100% |
| CNC(=O)c1cc(Oc2ccc(NC(=O)Nc3ccc(Cl)c(C(F)(F)F)c3)cc2)ccn1 | 89 | 100 | 97 | 16 | 40 | 100 | 8.6 | 0.1 | 81 | 95 | 100 | 92 | 100 | 67 | 100 | 100 | 100 | 100 | 0 | 70 | kinase still bound, per cent of control [3]: 50%; kinase still bound, per cent of control (SRPK3 (human)): 90%; kinase still bound, per cent of control (TTK (human)): 15%; kinase still bound, per cent of control (PHKG1 (human)): 90%; kinase still bound, per cent of control (PRKCE (human)): 86%; kinase still bound, per cent of control (MAP2K2 (human)): 86%; kinase still bound, per cent of control (YSK4 (human)): 0.4%; kinase still bound, per cent of control (MAP2K4 (human)): 100%; kinase still bound, per cent of control (MAPK15 (human)): 0.85%; kinase still bound, per cent of control (CDK11B (human)): 98%; kinase still bound, per cent of control (RIOK1 (human)): 100%; kinase still bound, per cent of control (MAP4K3 (human)): 54%; kinase still bound, per cent of control (NLK (human)): 32%; kinase still bound, per cent of control (PTK2 (human)): 99%; kinase still bound, per cent of control (PAK6 (human)): 91%; kinase still bound, per cent of control (EPHA8 (human)): 3.9%; kinase still bound, per cent of control (MAPK1 (human)): 100% |
